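The compound was tested at five concentrations on cells cultured in 96-well plates, with a 48-hour exposure period. GI50 = concentration required for 50% inhibition of growth.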 The source made the active and inactive calls. Rule as the data show it: active = GI50 up to about 1.1 µM and inactive = higher.
Legend:
Assay in all cases: NCI anticancer screen, dose series, 48 h
NCI-H23 = system: NCI-H23
COLO 205 = system: COLO 205
SN12C = system: SN12C
Malme-3M = system: Malme-3M
U-251 = system: U-251
SR = system: SR
SNB-19 = system: SNB-19
UACC-257 = system: UACC-257
A549 = system: A549
MDA-MB-231 = system: MDA-MB-231
NCI-H522 = system: NCI-H522
SF-539 = system: SF-539
BT-549 = system: BT-549
IGROV-1 = system: IGROV-1
SK-OV-3 = system: SK-OV-3
HOP-62 = system: HOP-62
NCI-H460 = system: NCI-H460
ACHN = system: ACHN
MDA-N = system: MDA-N
NCI/ADR-RES = system: NCI/ADR-RES
OVCAR-4 = system: OVCAR-4
HCT-116 = system: HCT-116
MCF7 = system: MCF7
786-0 = system: 786-0
MOLT-4 = system: MOLT-4
OVCAR-3 = system: OVCAR-3
M14 = system: M14
T47D = system: T47D
Hs-578T = system: Hs-578T
MDA-MB-435 = system: MDA-MB-435
SK-MEL-2 = system: SK-MEL-2
HOP-92 = system: HOP-92
SNB-75 = system: SNB-75
OVCAR-8 = system: OVCAR-8
SK-MEL-5 = system: SK-MEL-5
UACC-62 = system: UACC-62
PC-3 = system: PC-3
HT-29 = system: HT-29
SK-MEL-28 = system: SK-MEL-28
TK-10 = system: TK-10
DU-145 = system: DU-145
CCRF-CEM = system: CCRF-CEM
SW-620 = system: SW-620
OVCAR-5 = system: OVCAR-5
KM12 = system: KM12
RPMI-8226 = system: RPMI-8226
LOX IMVI = system: LOX IMVI
HCT-15 = system: HCT-15
HCC 2998 = system: HCC 2998
SF-268 = system: SF-268
UO-31 = system: UO-31
CAKI-1 = system: CAKI-1
HL-60 = system: HL-60
SF-295 = system: SF-295
NCI-H226 = system: NCI-H226
K562 = system: K562
EKVX = system: EKVX
RXF 393 = system: RXF 393
A498 = system: A498

Measured: GI50

CC(=O)OCC1OC(n2cnc(C(N)=S)c2N)C(OC(C)=O)C1OC(C)=O (centres undefined)
inactive: NCI-H23 > 100 µM | COLO 205 > 100 µM | SN12C > 100 µM | Malme-3M > 100 µM | U-251 > 100 µM | SR > 100 µM | SNB-19 > 100 µM | UACC-257 > 100 µM | A549 > 100 µM | MDA-MB-231 > 100 µM | NCI-H522 > 100 µM | SF-539 > 100 µM | BT-549 > 100 µM | IGROV-1 > 100 µM | SK-OV-3 > 100 µM | HOP-62 > 100 µM | NCI-H460 > 100 µM | ACHN > 100 µM | MDA-N > 100 µM | NCI/ADR-RES > 100 µM | OVCAR-4 > 100 µM | HCT-116 > 100 µM | MCF7 > 100 µM | 786-0 > 100 µM | MOLT-4 > 100 µM | OVCAR-3 > 100 µM | M14 > 100 µM | T47D > 100 µM | Hs-578T > 100 µM | MDA-MB-435 > 100 µM | SK-MEL-2 > 100 µM | HOP-92 > 100 µM | SNB-75 > 100 µM | OVCAR-8 > 100 µM | SK-MEL-5 > 100 µM | UACC-62 > 100 µM | PC-3 > 100 µM | HT-29 > 100 µM | SK-MEL-28 > 100 µM | TK-10 > 100 µM | DU-145 > 100 µM | CCRF-CEM > 100 µM | SW-620 > 100 µM | OVCAR-5 > 100 µM | KM12 > 100 µM | RPMI-8226 > 100 µM | LOX IMVI > 100 µM | HCC 2998 > 100 µM | SF-268 > 100 µM | UO-31 > 100 µM | CAKI-1 > 100 µM | HL-60 > 100 µM | SF-295 > 100 µM | NCI-H226 > 100 µM
> 100 µM: HCT-15

Cc1ccc(O)c(-c2cc(-c3cccc(Cl)c3)c(C#N)c(N)n2)c1
inactive: NCI-H23 25.1 µM | COLO 205 15.7 µM | SN12C 20.9 µM | Malme-3M 17.5 µM | K562 21.5 µM | U-251 15.6 µM | SR 10.7 µM | A549 18.9 µM | MDA-MB-231 20.7 µM | NCI-H522 12.5 µM | SF-539 19.5 µM | BT-549 36.3 µM | IGROV-1 6.93 µM | SK-OV-3 21.4 µM | HOP-62 20.6 µM | NCI-H460 19.6 µM | ACHN 17.9 µM | MDA-N 14.5 µM | NCI/ADR-RES 24.7 µM | OVCAR-4 15.9 µM | HCT-116 16.2 µM | MCF7 13.5 µM | 786-0 20.4 µM | MOLT-4 12.8 µM | OVCAR-3 38.5 µM | M14 20.9 µM | T47D 29.9 µM | Hs-578T 22.7 µM | MDA-MB-435 13.9 µM | EKVX 14 µM | SK-MEL-2 13.2 µM | HOP-92 13.1 µM | OVCAR-8 31 µM | SK-MEL-5 14.4 µM | RXF 393 19.3 µM | UACC-62 16.1 µM | PC-3 23.3 µM | HT-29 25.8 µM | TK-10 18.1 µM | DU-145 44.5 µM | CCRF-CEM 24.4 µM | SW-620 17.2 µM | OVCAR-5 24 µM | KM12 19.6 µM | RPMI-8226 19.6 µM | LOX IMVI 16.7 µM | SF-268 18.6 µM | UO-31 18 µM | CAKI-1 29.4 µM | HL-60 36.1 µM | SF-295 14.8 µM | NCI-H226 18.7 µM
12.2 µM: HCT-15

Cc1c2c(n(CCc3ccccc3)c1C)NN=C(C#N)S2(=O)=O
inactive: NCI-H23 > 100 µM | COLO 205 > 100 µM | SN12C > 100 µM | Malme-3M > 100 µM | K562 > 100 µM | U-251 > 100 µM | SR 6.53 µM | SNB-19 > 100 µM | UACC-257 > 100 µM | A549 > 100 µM | MDA-MB-231 > 100 µM | NCI-H522 71.1 µM | SF-539 > 100 µM | BT-549 > 100 µM | IGROV-1 > 100 µM | SK-OV-3 > 100 µM | HOP-62 > 100 µM | NCI-H460 > 100 µM | ACHN > 100 µM | MDA-N > 100 µM | NCI/ADR-RES > 100 µM | OVCAR-4 > 100 µM | HCT-116 > 100 µM | MCF7 > 100 µM | 786-0 > 100 µM | MOLT-4 > 100 µM | OVCAR-3 > 100 µM | M14 > 100 µM | T47D > 100 µM | Hs-578T > 100 µM | MDA-MB-435 > 100 µM | EKVX > 100 µM | SK-MEL-2 > 100 µM | SNB-75 > 100 µM | OVCAR-8 > 100 µM | SK-MEL-5 > 100 µM | UACC-62 > 100 µM | PC-3 > 100 µM | HT-29 > 100 µM | SK-MEL-28 > 100 µM | TK-10 > 100 µM | DU-145 > 100 µM | SW-620 > 100 µM | OVCAR-5 > 100 µM | KM12 > 100 µM | RPMI-8226 > 100 µM | LOX IMVI > 100 µM | HCC 2998 > 100 µM | SF-268 > 100 µM | UO-31 > 100 µM
> 100 µM: HCT-15

CCOC(=O)c1cc2c3c(c(C(C)=O)c(OC)c2[nH]1)N(C(=O)CC)CC3
16.5 µM: HCT-15
inactive: NCI-H23 11.9 µM | COLO 205 18.2 µM | SN12C 20.9 µM | Malme-3M 12.6 µM | K562 14.1 µM | U-251 19.2 µM | SNB-19 12.8 µM | UACC-257 19.4 µM | A549 14 µM | MDA-MB-231 4.25 µM | SF-539 19.8 µM | BT-549 17.3 µM | IGROV-1 13.6 µM | SK-OV-3 50.1 µM | HOP-62 25.1 µM | NCI-H460 16.7 µM | MDA-N 16.8 µM | NCI/ADR-RES 13.4 µM | OVCAR-4 21.5 µM | HCT-116 14.4 µM | MCF7 14.5 µM | 786-0 17.5 µM | MOLT-4 4.05 µM | OVCAR-3 14.5 µM | M14 16.8 µM | T47D 4.93 µM | Hs-578T 19.4 µM | MDA-MB-435 15.6 µM | EKVX 11.4 µM | SK-MEL-2 22.3 µM | HOP-92 13.5 µM | SNB-75 20.7 µM | OVCAR-8 19.8 µM | SK-MEL-5 10.9 µM | RXF 393 19.6 µM | UACC-62 16.3 µM | PC-3 23.3 µM | HT-29 16.6 µM | SK-MEL-28 15.3 µM | DU-145 15.6 µM | CCRF-CEM 13.7 µM | SW-620 24.9 µM | OVCAR-5 27.7 µM | KM12 10.7 µM | A498 36.9 µM | RPMI-8226 5.13 µM | LOX IMVI 14.6 µM | HCC 2998 23.4 µM | SF-268 16.4 µM | UO-31 12.7 µM | CAKI-1 14.9 µM | HL-60 6.4 µM | SF-295 19.3 µM | NCI-H226 10.2 µM

Source: ChEMBL document CHEMBL1201862, “PubChem BioAssay data set” (2004)
